Experimental data reported in patent US9540325B2, “N1-cyclic amine-N5-substituted phenyl biguanide derivatives, methods of preparing the same and pharmaceutical composition comprising the same” (Immunomet Therapeutics, Inc., priority 2011, dated 2017).

What was measured:
[1] = system: AMPKα; test: Measurement of AMPK activation effect (AMPKα Thr172 phosphorylation immunoassay) in MCF7 cells; format: cell-based, human; conditions: 24 hours; for AMPK activation effect at 10 μM (%) / AMPK activation effect at 50 μM (%): relative to untreated cells; for AMPK activation effect AC150: concentration at which AMPK activation reached 150%
Experimental: MCF7 cells derived from human breast cancer cells (commercially available from the Korean Cell Line Bank) were used, and the AMPK activation effect of the biguanide derivative was confirmed using an AMPKα immunoassay kit (Invitrogen, Catalog No. KHO0651).
MCF7 cells were cultured in a DMEM medium supplemented with 10% fetal bovine serum. Thereafter, the cultured MCF7 cells were put into a 6-well plate with approximately 5×10^5 cells per well and cultured in an incubator supplied with 5% CO2. Culture media were treated with the derivatives synthesized in the examples at contents of 5, 10 and 50 μM, and then cultured for 24 hours. Metformin hydrochloride was used as the control, and the culture media were treated with 0.05, 0.5, 1, 2, 5 and 10 mM metformin hydrochloride, and then tested in the same manner as described in the derivatives synthesized in the examples. Subsequently, the cells were lysed according to a method presented in the operation manual of the AMPKα immunoassay kit, and 20 μg of a cell lysate was then yielded through protein assay. Thereafter, the AMPK activation effect was obtained by determining the degree of phosphorylation of 172nd threonine residue (Thr172) of the AMPKα from the cell lysate according to the method presented in the operation manual of the AMPKα immunoassay kit. […] A curve graph showing AMPK activation according to the concentration of the treated compounds was plotted based on the obtained AMPKα activation results, the concentration (activation concentration 150, AC150) value of the compound whose AMPK activation reached 150% was calculated using a GraphPad Prism 5.0 program, and the degrees of AMPK activation were obtained when concentrations of the treated biguanide derivatives were 10 μM and 50 μM and the metformin hydrochloride was 50 μM

[2] = system: HCT116 cells; test: Measurement of effect of inhibiting cancer cell proliferation (MTT); format: cell-based, human; conditions: Homo sapiens; for inhibition at 100 µM: HCT-116, 100 μM, 48 hours, read-out: Cell Growth Inhibition (%) at 100 μM; for GI50: HCT-116, 48 h
From the text: HCT116 cells derived from human colorectal cancer (commercially available from the Korean Cell Line Bank) were used, and the effect of inhibiting cancer cell proliferation of the biguanide derivative was confirmed by measuring the concentration value (cell growth inhibition concentration, GIC50) at which cell growth was inhibited by 50% using a 3-(4,5-dimethylthiazol-2-yl)-2,5-diphenyltetrazolium bromide (MTT) reagent.
First, HCT116 cells were put on a 96-well plate and cultured in a DMEM medium containing 10% fetal bovine serum for 16 hours so that the cellcount in each well was approximately 5,000. Subsequently, to obtain the GIC50 value of each compound, culture media were treated with 100 μM, 25 μM, 6.25 μM, 1.56 μM or 0.39 μM of the compound, and then cultured for 48 hours. Metformin hydrochloride was used as the control, and the culture media were treated with 25, 12.5, 2.5, 0.5, 0.1 mM metformin hydrochloride, and then tested in the same manner as described in the derivatives synthesized in the examples. In order to determine whether the cells survived after treatment with the compounds, MTT was added to the culture media which were then cultured for another 3 hours. Formed formazane crystals were dissolved using dimethyl sulfoxide (DMSO), and the absorbance of the resulting solution was measured at 560 nm. After the 48-hour culture, […] was indicated as cell viability (%) according to each treated concentration. A cell viability curve graph was plotted and the concentration (GIC50) value of the compound at which the growth was inhibited by 50% was calculated to confirm the inhibition effect of cancer cell proliferation. Also, the cell growth viability (%) when the concentration of the treated biguanide derivative and the metformin hydrochloride as the control were 100 μM was shown.

| Compound | melting point | GI50 [2] | AMPK activation effect at 10 μM (%) [1] | AMPK activation effect at 50 μM (%) [1] | AMPK activation effect AC150 [1] | inhibition at 100 µM [2] |
| --- | --- | --- | --- | --- | --- | --- |
| CC(=O)Nc1ccc(NC(=N)NC(=N)N2CCCCC2)cc1.Cl [Example 38, N1-piperidine-N5-(4-acetamide)phenyl biguanide hydrochloride] | 258 to 260 °C | > 100 µM | 94% | 144% | >50 µM | 0% |
| Cl.N=C(NC(=N)N1CCCCC1)Nc1ccc(-c2nnn[nH]2)cc1 [Example 40, N1-piperidine-N5-(4-(1H-tetrazole-5-yl))phenyl biguanide hydrochloride] | 241 to 242 °C | > 100 µM | 41% | 55% | >50 µM | 0.9% |
| COc1cc(NC(=N)NC(=N)N2CCCCC2)cc(OC)c1.Cl [Example 45, N1-piperidine-N5-(3,5-dimethoxy)phenyl biguanide hydrochloride] | 234 to 236 °C | > 100 µM | 232% | 249% | 2.7 µM | 41.3% |
| Cl.N=C(NC(=N)N1CCCCC1)Nc1ccc(F)c(C(F)(F)F)c1 [Example 46, N1-piperidine-N5-(4-fluoro-3-trifluoromethyl)phenyl biguanide hydrochloride] | 269 to 270 °C | 5.6 µM | 261% |  | 1.3 µM | 97% |
| Cl.N=C(NC(=N)N1CCCCC1)Nc1ccc(Cl)c(C(F)(F)F)c1 [Example 47, N1-piperidine-N5-(4-chloro-3-trifluoromethyl)phenyl biguanide hydrochloride] | 269 to 270 °C | 1.9 µM | 169% |  | 7.3 µM | 96.7% |
| Cl.N=C(NC(=N)N1CCCCC1)Nc1ccc(F)c(OC(F)(F)F)c1 [Example 50, N1-piperidine-N5-(4-fluoro-3-trifluoromethoxy)phenyl biguanide hydrochloride] | 260 to 261 °C | 3.9 µM | 127% |  | >50 µM | 97% |
| Cl.N=C(NC(=N)N1CCCCC1)Nc1ccc(Cl)c(OC(F)(F)F)c1 [Example 51, N1-piperidine-N5-(4-chloro-3-trifluoromethoxy)phenyl biguanide hydrochloride] | 251 to 252 °C | 1.9 µM | 160% |  | 7.8 µM | 96.3% |
| Cl.N=C(NC(=N)N1CCC1)Nc1ccc(OC(F)(F)F)c(F)c1 [Example 52, N1-azetidine-N5-(3-fluoro-4-trifluoromethoxy)phenyl biguanide hydrochloride] | 260 to 261 °C | 19.8 µM | 265% | 740% | 3.3 µM | 101% |
| Cl.N=C(NC(=N)N1CCC1)Nc1ccc(OC(F)(F)F)c(Cl)c1 [Example 55, N1-azetidine-N5-(3-chloro-4-trifluoromethoxy)phenyl biguanide hydrochloride] | 254 to 255 °C | 7.3 µM | 342% |  | 2.6 µM | 101% |
| Cl.N=C(NC(=N)N1CCCCC1)Nc1ccc(OC(F)(F)F)c(Cl)c1 [Example 57, N1-piperidine-N5-(3-chloro-4-trifluoromethoxy)phenyl biguanide hydrochloride] | 261 to 262 °C | 2.6 µM | 345% |  | 3.2 µM | 96.3% |
| Cl.N=C(NC(=N)N1CCCCC1)Nc1ccc(F)cc1F [Example 58, N1-piperidine-N5-(2,4-difluoro)phenyl biguanide hydrochloride] | 256 to 257 °C | > 100 µM | 131% | 265% | 16.5 µM | 37.4% |
| Cl.N=C(NC(=N)N1CCCCC1)Nc1cc(F)cc(F)c1 [Example 60, N1-piperidine-N5-(3,5-difluoro)phenyl biguanide hydrochloride] | 243 to 244 °C | 48.2 µM | 144% | 576% | 8.2 µM | 97.6% |
| Cl.N=C(NC(=N)N1CCCCC1)Nc1cc(Cl)cc(Cl)c1 [Example 61, N1-piperidine-N5-(3,5-dichloro)phenyl biguanide hydrochloride] | 230 to 231 °C | 7.1 µM | 239% |  | 3.3 µM | 97.7% |

Continued, in another order:

| melting point | GI50 [2] | Compound | AMPK activation effect at 10 μM (%) [1] | AMPK activation effect at 50 μM (%) [1] | AMPK activation effect AC150 [1] | inhibition at 100 µM [2] |
| --- | --- | --- | --- | --- | --- | --- |
| 220 to 222 °C | > 100 µM | Cl.N=C(NC(=N)N1CCCCC1)Nc1cccc(N)c1 [Example 36, N1-piperidine-N5-(3-amino)phenyl biguanide hydrochloride] | 62% | 175% | 36.8 µM | 43.6% |
| 253 to 255 °C | > 100 µM | CN(C)c1ccc(NC(=N)NC(=N)N2CCCCC2)cc1.Cl [Example 37, N1-piperidine-N5-(4-dimethylamino)phenyl biguanide hydrochloride] | 123% | 286% | 13.9 µM | 32.2% |
| 265 to 267 °C | > 100 µM | CC(=O)Nc1cccc(NC(=N)NC(=N)N2CCCCC2)c1.Cl [Example 39, N1-piperidine-N5-(3-acetamide)phenyl biguanide hydrochloride] | 100% | 145% | >50 µM | 25.5% |
| 251 to 253 °C | > 100 µM | CS(=O)(=O)Nc1cccc(NC(=N)NC(=N)N2CCCCC2)c1.Cl [Example 41, N1-piperidine-N5-(3-methylsulfonamide)phenyl biguanide hydrochloride] | 86% | 125% | >50 µM | 18.8% |
| 264 to 265 °C | 37.1 µM | CSc1ccc(NC(=N)NC(=N)N2CCCCC2)cc1.Cl [Example 43, N1-piperidine-N5-(4-methylthio)phenyl biguanide hydrochloride] | 239% | 547% | 4.1 µM | 98% |
| 257 to 258 °C | 28.1 µM | Cl.N=C(NC(=N)N1CCCCC1)Nc1ccc(F)c(F)c1 [Example 59, N1-piperidine-N5-(3,4-difluoro)phenyl biguanide hydrochloride] | 269% | 1036% | 3.6 µM | 97.8% |
| 262 to 263 °C | 11.6 µM | Cl.N=C(NC(=N)N1CCCCC1)Nc1ccc(Cl)cc1Cl [Example 62, N1-piperidine-N5-(2,4-dichloro)phenyl biguanide hydrochloride] | 208% |  | 5.6 µM | 97.2% |
